From US9877923B2, “Process for preparing therapeutic nanoparticles” (Pfizer Inc., priority 2012, dated 2018)
Values after ≈ are worked out from the molar mass of the structure shown.

Legend:
[1] = Dasatinib solubility in selected solvents with or without acid doping (by HPLC); conditions: organic solvent or mixture
[2] = Drug recovery during in vitro release experiments; assay type: physicochemical; conditions: after 4 hr incubation at 37° C.
Text: Release data of 24 hr and 48 hr, in Table 4, are underlined because the drug recovered at these two time points show significant degradation (data are shown in the bottom of the table in the Drug Recovery section).

SMILES: Cc1nc(Nc2ncc(C(=O)Nc3c(C)cccc3Cl)s2)cc(N2CCN(CCO)CC2)n1 [Dasatinib, dasatinib]
- solubility ([1]; 1% TFA in benzyl alcohol): 56.5 mg/mL (≈ 116 mM)
- solubility ([1]; 2% TFA in benzyl alcohol): 103 mg/mL (≈ 211 mM)
- solubility ([1]; 3% TFA in 7.5% water in benzyl alcohol): 157 mg/mL (≈ 322 mM)
- solubility ([1]; 3% TFA in benzyl alcohol): 141 mg/mL (≈ 289 mM)
- solubility ([1]; 7.5% water in benzyl alcohol): 32.8 mg/mL (≈ 67.1 mM)
- stability of dasatinib during incubation [2]: degradation of dasatinib is observed
